Data reported in patent US20200407712A1, “ARRAY-BASED CYCLIC PEPTIDE LIBRARIES” (HealthTell Inc., priority 2018, published 2020).

Key:
[1] = intramolecular disulfide formation by ambient air oxidation of bis-Cys peptides on SiO2 array surface after side-chain deprotection (TFA/TMS-OTf) and NH3-gas DKP detachment; fraction oxidized from MALDI relative peak intensities; conditions: the molecule shown is the open-chain precursor, none (dry film on SiO2, ambient air), other, 18.0 h, scale: fraction oxidized
Rituximab [2] = assay: Rituximab binding to constrained peptide arrays
Experimental: Cyclized and linear microarrays from Click and lactam wafers were probed using a seven point dilution series of Rituximab (Creative Diagnostics, TAB-016) ranging from 24.0 nM to 0.032 nM with threefold steps. Bound Rituximab was detected using an anti-human IgG-Alexa Fluor™ 555 (Thermo-Fisher) at 4.0 nM. All incubation times were for 1 hr and washes between incubation steps were conducted using Phosphate Buffered Saline with 0.05% Tween 20 (PBST). After the secondary detection step, slides were sequentially washed using PBST, distilled water and a 90% isopropanol rinse. Slides were immediately dried by centrifugation following the isopropanol rinse. Imaged arrays were gridded using commercial software to extract intensities from individual features. Data was analyzed using a custom R script. For both chemistries tested, 24.0 nM Rituximab gave the greatest differential between linear and cyclic copies of the same peptide (present on the same array) and was used for example boxplots. […] In the peptide sequence, B and X represent lactam cyclization residues Lys and Glu respectively. Individual feature replicates for BAEANPSX (cyclic) and BAEANPS (linear) from replicate arrays assayed on two separate slides were used to prepare the boxplot. A p-value comparing the replicate feature intensities was calculated using the anova function in R.

Rituximab [3] = assay: Rituximab binding to biotinyl peptides captured on streptavidin ELISA plates; conditions: streptavidin ELISA plate; Rituximab 66.0 to 0.03 nM; absorbance at 450 nm
Experimental: To confirm Rituximab binding to the sequences identified in Example 22, the peptides in Table 1 were prepared by Fmoc-based solid phase synthesis. Peptides were biotinylated at either the N-terminal or through the […] side chain with a long chain biotin (LCBiot). Biotinylated peptides were bound to streptavidin ELISA plates. Rituximab in PBST was applied to the array in a dilution series ranging from 66.0 to 0.03 nM using three-fold dilution steps. Plates were incubated for 1 hr at 37° C. and washed 3× with PBST. An anti-human IgG-HRP conjugate was applied to the array at 1.0 μg/mL for 1 hr at 37° C. Plates were washed 3× with PBST and TMB substrate applied for 15 min at 37° C. followed by 2N HCl to stop the reaction. Absorbance was read at 450 nm and the median of triplicate wells plotted against mAb concentration in FIG. 19. Rituximab bound constrained peptide HTP115 but not linear version HTP113 or a constrained sequence with LCBiot at the N-terminal (HTP114). Rituximab also binds to HTP116, a biotinylated version of a cyclic disulfide sequence previously reported to bind to Rituximab (Perosa et al. Blood, 2006, 107 (3), 1070-1077).

Row | Molecule | ring closure, fraction oxidized by MALDI ([1]; 20-membered ring) | Rituximab binding to biotinyl peptide (Rituximab [3]) | further results
1 | COc1cc(OC)c([P+](CC(=O)N[C@@H](CCCCN)C(=O)N[C@@H](CS)C(=O)N[C@H](C(=O)N2CCC[C@H]2C(=O)NCC(=O)N[C@@H](Cc2c[nH]cn2)C(=O)N[C@@H](CS)C(=O)N[C@@H](CC(C)C)C(=O)NCCCC[C@@H]2NC(=O)[C@@H]3CCCN3C2=O)[C@@H](C)O)(c2c(OC)cc(OC)cc2OC)c2c(OC)cc(OC)cc2OC)c(OC)c1 | 0.63 | – | –
2 | COc1cc(OC)c([P+](CC(=O)N[C@@H](CS)C(=O)N[C@H](C(=O)N2CCC[C@H]2C(=O)NCC(=O)N[C@@H](Cc2c[nH]cn2)C(=O)N[C@@H](CS)C(=O)NCCCC[C@@H]2NC(=O)[C@@H]3CCCN3C2=O)[C@@H](C)O)(c2c(OC)cc(OC)cc2OC)c2c(OC)cc(OC)cc2OC)c(OC)c1 | 0.79 | – | –
3 | COc1cc(OC)c([P+](CC(=O)N[C@@H](CS)C(=O)N[C@H](C(=O)N[C@@H](CCC(N)=O)C(=O)N[C@@H](Cc2c[nH]cn2)C(=O)N[C@@H](Cc2ccc(O)cc2)C(=O)N[C@@H](CS)C(=O)NCCCC[C@@H]2NC(=O)[C@@H]3CCCN3C2=O)[C@@H](C)O)(c2c(OC)cc(OC)cc2OC)c2c(OC)cc(OC)cc2OC)c(OC)c1 | 0.75 | – | –
4 | COc1cc(OC)c([P+](CC(=O)N[C@@H](CS)C(=O)N[C@@H](CS)C(=O)NCCCC[C@@H]2NC(=O)[C@@H]3CCCN3C2=O)(c2c(OC)cc(OC)cc2OC)c2c(OC)cc(OC)cc2OC)c(OC)c1 [TMPP-Ac-Cys-Cys-DKP [DKP = N-epsilon of cyclo(Lys-Pro)]] | – | – | ring closure, fraction oxidized by MALDI ([1]; 8-membered ring): 0.8
5 | BAEANPSX | – | – | change of Rituximab binding upon Click cyclization (Rituximab [2]; cyclic versus linear feature, Click array): not; change of Rituximab binding upon lactam based cyclization (Rituximab [2]; cyclic versus linear feature, lactam array): increases; Rituximab binding on lactam array (rank among binders) (Rituximab [2]; lactam array, 24.0 nM Rituximab): amongst the top Rituximab binders
6 | LCBiot-ACPYANPSLC amide (cyclic disulfide) [HTP116, reference compound] | – | binds | –
7 | LCBiot-K(Ac)AEANPSQ amide [HTP113] | – | not | –
8 | LCBiot-cyclo[KeAEANPSQ] [HTP114] | – | not | –
9 | cyclo[KεAEANPSQ(LCBiot)] amide [HTP115] | – | bound | –
